In US7238716B2, “Alkanoic acid derivatives process for their production and use thereof” (Takeda Pharmaceuticals Company Limited, priority 2000, dated 2007) one finds EC50, melting point and inhibition in vivo data, which are given here for 16 compounds.

The target of series [1] is T1, PPARγ-RXRα heterodimer (Homo sapiens, UniProt P37231).
T1 construct: expressed in transfected cells; host or cells: CHO-K1
T1 sequence (P37231 1-477 isoform P37231-2): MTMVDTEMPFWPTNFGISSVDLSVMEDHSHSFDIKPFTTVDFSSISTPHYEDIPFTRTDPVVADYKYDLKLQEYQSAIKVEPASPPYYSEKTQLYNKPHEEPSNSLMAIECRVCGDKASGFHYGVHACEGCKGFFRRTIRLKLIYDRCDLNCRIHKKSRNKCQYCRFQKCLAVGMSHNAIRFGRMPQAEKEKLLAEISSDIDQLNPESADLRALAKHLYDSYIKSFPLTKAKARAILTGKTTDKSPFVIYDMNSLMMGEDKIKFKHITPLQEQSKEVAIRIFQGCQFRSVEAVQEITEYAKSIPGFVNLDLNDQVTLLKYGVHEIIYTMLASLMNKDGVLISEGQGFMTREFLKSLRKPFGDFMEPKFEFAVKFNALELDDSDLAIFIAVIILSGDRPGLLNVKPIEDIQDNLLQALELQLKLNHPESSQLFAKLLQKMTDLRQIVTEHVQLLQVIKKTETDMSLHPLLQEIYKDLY
T1 sequence (P19793 1-462 partner): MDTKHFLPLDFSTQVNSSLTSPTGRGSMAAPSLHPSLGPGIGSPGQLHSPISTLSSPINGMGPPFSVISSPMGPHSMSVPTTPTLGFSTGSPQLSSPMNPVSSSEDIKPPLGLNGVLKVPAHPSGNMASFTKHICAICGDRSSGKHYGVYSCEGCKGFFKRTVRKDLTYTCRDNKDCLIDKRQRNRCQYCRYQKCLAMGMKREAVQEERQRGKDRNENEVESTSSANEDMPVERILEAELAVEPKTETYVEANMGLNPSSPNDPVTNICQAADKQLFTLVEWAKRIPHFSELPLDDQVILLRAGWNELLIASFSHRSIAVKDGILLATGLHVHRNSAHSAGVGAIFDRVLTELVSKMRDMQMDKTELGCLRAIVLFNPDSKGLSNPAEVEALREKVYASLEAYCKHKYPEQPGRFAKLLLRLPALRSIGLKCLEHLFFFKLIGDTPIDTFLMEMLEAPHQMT
Description: PPARγ-RXRα heterodimer ligand activity, luciferase reporter in PPARγ:RXRα:4ERPP/CHO-K1 cells (Test Example 3). The series is classed as cell-based. To be noted: concentration for 50% of the maximum fold induction of luciferase activity; 48 hours, CHO-K1 cells. The protocol: A PPARγ:RXRα:4ERPP/CHO-K1 cells obtained in Reference Example 5 described later were cultured in HAM F12 medium (produced by NISSUI SEIYAKU) containing 10% Fetal bovine serum (produced by Life Technologies, Inc., USA) and then inoculated to a 96-well white plate (produced by Corning Costar Corporation, USA) at the density of 2×10^4 cells/well, and cultured in a CO2 gas incubator at 37° C. overnight.
After washing the 96 well white plate with PBS (Phosphate-buffered saline), 90 μl of HAM F12 medium containing 0.1% fatty acid-free bovine serum albumin (BSA) and 10 μl of test compound were added, which was cultured in a CO2 gas incubator at 37° C. for 48 hours. After removing the medium, 40 μl of PIKKAGENE 7.5 (produced by Wako Pure Chemical Industries, Ltd.) was added. After stirring, the luciferase activity was determined using Lumistar (produced by BMG Labtechnologies GmbH, Germany).
A fold induction was calculated based on the luciferase activity of each test compound by taking the luciferase activity in the test compound non administration group as 1. The values of the test compound, concentration and the fold induction were analyzed using PRISM 2.01 (produced by GraphPad Software Inc. USA) to calculate the EC50 values, the effective concentration of a test compound for 50% of the maximum fold induction.
After a CHO-K1 cell cultured in a 750 ml tissue culture flask (produced by Corning-Costar Corporation, USA) containing HAM F12 medium (produced by NISSUI SEIYAKU) supplemented with 10% Fetal Bovine Serum (produced by Life Technologies, Inc., USA) was scraped by treating with 0.5 g/L trypsin-0.2 g/L EDTA (ethylenediaminetetraacetic acid) (produced by Life Technologies, Inc., USA), the cell was washed with PBS (phosphate buffered saline) (produced by Life Technologies, Inc., USA), centrifuged (1000 rpm, 5 minutes), and then suspended in PBS. Subsequently, a DNA was introduced into the cell under the condition shown below using GENE PULSER (produced by Bio-Rad Laboratories, USA).
Namely, to a cuvette having a 0.4 cm gap, added were 8×10^6 cells and 10 μg of plasmid pVgRXR2-hPPARγ obtained in Reference Example 3 and 10 μg of reporter plasmid pGL3-4ERPP-TK neo obtained in Reference Example 4, which was subjected to electroporation at the voltage of 0.25 kV under the capacitance of 960 μF. Subsequently, the cell was transferred into a HAM F12 medium containing 10% Fetal Bovine. Serum and cultured for 24 hours. Then the cell was scraped again and centrifuged, and then suspended in HAM F12 medium containing 10% Fetal Bovine Serum supplemented with 500 μg/ml of GENETICIN (produced by Life Technologies, Inc., USA) and 250 μg/ml of ZEOCIN (produced by Invitrogen, USA). The suspension was diluted to the density of 10^4 cells/ml, and inoculated to a 96-well plate (produced by Corning Costar Corporation, USA), which was cultured in a CO2 gas incubator at 37° C., whereby obtaining a GENETICIN- and ZEOCIN-resistant transformant.
Subsequently, after the transformant cell line thus obtained was cultured in a 24-well plate (produced by Corning Costar Corporation, USA), selected was a cell line, PPARγ:RXRα:4ERPP/CHO-K1 cell, in which the luciferase was expressed and induced by addition of 10 μM pioglitazone hydrochloride.
In general terms: Reporter assays use an easily measured gene product as a stand-in for the process of interest.

Series [2] relates to KKAY mice. Description: Hypoglycemic and hypolipidemic actions in mice (Test Example 1). Format: in vivo. To be noted: Mus musculus, po, 96 h, 0.005% in powdery diet, four days. From the text:
Test compounds were mixed in a powdery diet (CE-2, Japan Clea) at the concentration of 0.01% (compounds of Examples 7, 26, 29, 32) or 0.005% (compounds of Examples 1, 11, 15, 18, 24, 36, 37, 41, 48, 50, 51, 52, 58, 62, 79, 83, 88, 90, 91, 92, 93, 97, 107, 110, 115, 119, 122, 125, 129 and 130), and freely given to KKAY mice (11 to 12 weeks old, 5 mice in a group), a model of type 2 diabetes mellitus, for four days. During this period, water was given freely. Blood was sampled from orbital venous plexus, and glucose and triglyceride levels in plasma separated from blood were determined enzymatically using L type Wako Glu2 (Wako Pure Chemical Industries, Ltd.) or L type Wako TG.H (Wako Pure Chemical Industries, Ltd.), respectively.
In the Table, “hypoglycemic action (%)” means a percent reduction (%) of the glucose level in the test compound administration group when that of the test compound non-administration group is taken as 100%. In addition, the “hypolipidemic action (%)” means a percent reduction (%) of the triglyceride level in the test compound administration group when that of the test compound non-administration group is taken as 100%.

The mark [3] stands for this setting: percent reduction of plasma glucose level vs non-administration group, read-out: hypoglycemic action (%).
[4] abbreviates: percent reduction of plasma triglyceride level vs non-administration group, read-out: hypolipidemic action (%).

pEC50: −log10 of the molar value. Read-outs that look alike come from different tables or passages of the source.

As to `Cc1oc(-c2ccccc2)nc1CN(C(=O)OC(C)(C)C)c1ccc(COc2ccccc2CC(=O)O)cc1` [Example 60, 2-[2-[4-[(t-butoxycarbonyl)[(5-methyl-2-phenyl-4-oxazolyl)methyl]amino]benzyloxy]phenyl]acetic acid], in series [1], the negative-log EC50 (pEC50) (in general, the EC50 on a negative log10 scale, so that one unit is a factor of ten) is 8.21.
Consider `CCOc1cc(OCc2ccc(OCc3nc(-c4ccccc4)oc3C)cc2)ccc1CCC(=O)O` [Example 66, 3-[2-ethoxy-4-[4-[(5-methyl-2-phenyl-4-oxazolyl)methoxy]benzyloxy]phenyl]propionic acid], for which the melting point (in general, the temperature, or range, at which the solid turns liquid) was 135 to 136 °C. The compound also showed a pEC50 in series [1] of 6.03.
The corresponding values for `CCOc1cc(OCc2cccc(OCc3nc(-c4ccccc4)oc3C)c2)ccc1CCC(=O)O` [Example 71, 3-[2-ethoxy-4-[3-[(5-methyl-2-phenyl-4-oxazolyl)methoxy]benzyloxy]phenyl]propionic acid] are 122 to 123 °C and 6.48.
The corresponding values for `Cc1oc(-c2ccccc2)nc1COc1cncc(COc2cccc(CC(=O)O)c2)c1` [Example 78, 2-[3-[5-[(5-methyl-2-phenyl-4-oxazolyl)methoxy]-3-pyridylmethoxy]phenyl]acetic acid] are 143 to 144 °C and 6.72.
The like results for `Cc1oc(-c2ccccc2)nc1COc1cc(COc2cccc(CC(=O)O)c2)on1` [Example 81, 2-[3-[3-(5-methyl-2-phenyl-4-oxazolylmethoxy)-5-isoxazolylmethloxy]phenyl]acetic acid] were, in that order, 128 to 129 °C and 7.21.
`CCCc1ccc(OCc2ccc(OCc3nc(-c4ccccc4)oc3C)cc2)c(CC(=O)O)c1` [Example 83, 2-[2-[4-[(5-methyl-2-phenyl-4-oxazolyl)methoxy]benzyloxy]-5-propylphenyl]acetic acid] displayed a melting point of 116 to 117 °C. Also, the inhibition in vivo at 0.005 % in series [2] (setting [3]) turned out to be 48%. For the same compound, the inhibition in vivo at 0.005 % in series [2] (setting [4]) came to 43%. This compound gave a pEC50 in series [1] of 6.96.
Compound `CCCc1oc(-c2ccccc2)nc1COc1ccc(COc2ccccc2CC(=O)O)cc1` [Example 85, 2-[2-[4-[(2-phenyl-5-propyl-4-oxazolyl)methoxy]benzyloxy]phenyl]acetic acid] came in with a melting point of 129 to 130 °C. For the same compound, the negative-log EC50 (pEC50) in series [1] was 6.59.
In turn, `Cc1oc(-c2ccco2)nc1COc1cc(COc2cccc(CC(=O)O)c2)ccn1` [Example 90] yielded a melting point of 136 to 137 °C. The inhibition in vivo at 0.005 % in series [2] (setting [3]) stood at 30%. Also, the inhibition in vivo at 0.005 % in series [2] (setting [4]) stood at 40%. This compound gave a negative logarithm of the EC50 (pEC50) in series [1] of 7.28.
On to `Cc1oc(-c2ccccc2)nc1CCc1nc(COc2ccccc2CC(=O)O)co1` [Example 99, 2-[2-[[2-[2-(5-methyl-2-phenyl-4-oxazolyl)ethyl]-4-oxazolyl]methoxy]phenyl]acetic acid], for which the melting point is 109 to 110 °C. The compound further gave a negative logarithm of the EC50 (pEC50) in series [1] of 6.80.
The like results for `Cc1oc(-c2ccccc2)nc1CCc1nc(COc2cccc(CC(=O)O)c2)co1` [Example 101, 2-[3-[[2-[2-(5-methyl-2-phenyl-4-oxazolyl)ethyl]-4-oxazolyl]methoxy]phenyl]acetic acid] were, in that order, 127 to 128 °C and 7.37.
The like results for `Cc1oc(-c2ccccc2)nc1CCc1nc(COc2ccccc2CC(=O)O)cs1` [Example 103, 2-[2-[[2-[2-(5-methyl-2-phenyl-4-oxazolyl)ethyl]-4-thiazolyl]methoxy]phenyl]acetic acid] were, in that order, 152 to 153 °C and 6.62.
On to `Cc1sc(-c2ccccc2)nc1COc1cc(COc2ncccc2CC(=O)O)on1` [Example 115, 2-[2-[[3-[(5-methyl-2-phenyl-4-thiazolyl)methoxy]-5-isoxazolyl]methoxy]-3-pyridyl]acetic acid], for which the melting point was 109 to 110 °C. Besides, the inhibition in vivo at 0.005 % in series [2] (setting [3]) was 52%. Further, the inhibition in vivo at 0.005 % in series [2] (setting [4]) was determined as 87%. This compound gave a negative-log EC50 (pEC50) in series [1] of 7.15.
As for `Cc1oc(-c2ccccc2)nc1CCOc1ccc(COc2ccccc2CC(=O)O)cn1` [Example 119, 2-[2-[[6-[2-(5-methyl-2-phenyl-4-oxazolyl)ethoxy]-3-pyridyl]methoxy]phenyl]acetic acid], the melting point was in the range of 159 to 160 °C. Moreover, the inhibition in vivo at 0.005 % in series [2] (setting [3]) was 40%. The inhibition in vivo at 0.005 % in series [2] (setting [4]) was determined as 33%. The negative-log EC50 (pEC50) in series [1] is 6.66.
Consider `Cc1oc(-c2ccco2)nc1COc1ccc(COc2ccccc2CC(=O)O)cn1` [Example 124], for which the melting point lay in the range of 119 to 120 °C. The compound also gave a negative-log EC50 (pEC50) in series [1] of 7.38.
With `Cc1nn(-c2ccccn2)cc1COc1ccc(COc2ncccc2CC(=O)O)cc1` [Example 126, 2-[2-[4-[[3-methyl-1-(2-pyridyl)-1H-pyrazol-4-yl]methoxy]benzyloxy]-3-pyridyl]acetic acid], the melting point lay in the range of 150 to 151 °C. Also, the pEC50 in series [1] was 5.77.
The corresponding values for `COc1ccc(COc2cccc(CC(=O)O)c2)cc1OCc1nc(-c2ccccc2)oc1C` [Example 132, 3-[4-methoxy-3-[(2-phenyl-5-methyl-4-oxazolyl)methoxy]benzyloxy]phenylacetic acid] are 114 to 115 °C and 6.96.
